We go through ten compounds from patent publication US6716428B1, “Antigenic modification of polypeptides” (The Ohio State University Research Foundation, priority 1999, dated 2004).

Like-named read-outs stand apart in the source and are kept apart here.

The subject of experiment [1] is HCG. It is filed as in vivo, rabbit.
Experiment [2] concerns peptide used in the conjugate (Structure (II), (XII), (XIV), (X)). The experiment is described as follows: Antibody level to the peptide of the conjugate in immunized mice (^125I antigen, double antibody technique). It is filed as in vivo. The following applies: for Antibody level to Structure (XII): 52 days; for Antibody Level to Peptide: mice, carrier series.
For experiment [3], the system named is HCG. Put plainly: Antibody level to HCG in immunized mice (^125I antigen, double antibody technique). It is filed as in vivo. The following applies: for Antibody level to CG: 52 days; for Antibody Level to HCG: mice, carrier series.
Another experiment relates to baboons. Put plainly: Breeding of immunized baboons (pre-mate titer, ovulation, pregnancy), Diazo-β-HCG presensitized, Diazo-β-HCG-(111-145) booster. It is filed as in vivo, baboon. The following applies: for Pre-Mate Titer: baboon 2, matings No. 1-10 over approximately one year. On the procedure: Baboons were immunized initially with a beta subunit of HCG modified by diazotization in a manner similar to that described in conjunction with Example II. Following this initial administration, the baboons were injected 21 and 42 days later with the peptide of Structure (II) above which had been modified by the same diazotization process. The levels were maintained for a period of over one year.
The Table presents the results of mating these animals ten times over a period of approximately one year. […] Such cross reactivity may be avoided by the utilization of the fragment conjugation procedures set forth in detail hereinabove.

The test system of another experiment is female baboons. Put plainly: Fertility rates (matings and pregnancies) of immunized female baboons. It is filed as in vivo, baboon. The conditions noted are these: CFA.

With `CC(=O)N[C@H]1C(O)O[C@H](CO)[C@@H](O)[C@@H]1OCC(=O)N[C@@H](C)C(=O)N[C@H](CCC(=O)O)C(N)=O` (some centres unmarked) [CGP 11637, NAc-nor Mur-L. Ala-D. iso Gln], the “Mean Antibody Level-^125I-HCG” value in the experiment with HCG [1] (as E193, 4 weeks) amounted to 177.8 M/L × 10^10; in the experiment on HCG [1] (as E193, 5 weeks) it was 211.9 M/L × 10^10; in the experiment on HCG [1] (as E193, 6 weeks) it was 297.2 M/L × 10^10; in the experiment with HCG [1] (as E193, 7 weeks), 381.2 M/L × 10^10; with HCG [1] (as E193, 8 weeks), 418.6 M/L × 10^10; in the experiment on HCG [1] (as E193, 9 weeks), 480.0 M/L × 10^10. The “Mean Antibody Level-^125I-HCG” value is 708.6 M/L × 10^10 in the experiment on HCG [1] (as E193, 10 weeks); 628.5 M/L × 10^10 with HCG [1] (as E193, 11 weeks); 398.5 M/L × 10^10 in the experiment on HCG [1] (as E193, 12 weeks); 16.3 M/L × 10^10 in the experiment with HCG [1] (in vivo). Moreover, the “HCG antibody levels compared with rabbits receiving adjuvants CGP 16940 and 12908” value in the experiment on HCG [1] (in vivo) is reported as “significantly greater”. The “Antibody level to Structure (XII)” value in experiment [2] was 70.9 ng/mL; in experiment [2] (C3H/He mice, same conjugate) it was 84.0 ng/mL; in experiment [2] (DBA/1 mice, same conjugate), 42.5 ng/mL; in experiment [2] (SJL mice, same conjugate), 60.1 ng/mL. The “Antibody level to CG” value in the experiment on HCG [3] worked out at 18.3 ng/mL; in the experiment on HCG [3] (C3H/He mice, same conjugate) it was 21.5 ng/mL; in the experiment on HCG [3] (DBA mice, same conjugate) it was 10.6 ng/mL; in the experiment on HCG [3] (SJL mice, same conjugate), 13.8 ng/mL.

For the compound `CCC(NC(=O)COC1C(O)C(CO)OC(O)C1NC(C)=O)C(=O)NC(CCC(=O)O)C(N)=O` [CGP 14767, NAc-nor-Mur-L-Abu-D.isoGln], the “Antibody level to Structure (XII)” value in experiment [2] was 53.0 ng/mL; in experiment [2] (C3H/He mice, same conjugate), 74.9 ng/mL; in experiment [2] (DBA/1 mice, same conjugate) it was 22.2 ng/mL; in experiment [2] (SJL mice, same conjugate) it was 91.6 ng/mL. In addition, the “Antibody level to CG” value with HCG [3] worked out at 21.0 ng/mL; with HCG [3] (C3H/He mice, same conjugate) it was 21.4 ng/mL; with HCG [3] (DBA mice, same conjugate), 11.1 ng/mL; in the experiment with HCG [3] (SJL mice, same conjugate) it was 5.4 ng/mL.

On to `CCCCCCCCCCCCCCCCCC(=O)OCC1OC(O)C(NC(C)=O)C(OC(C)C(=O)NC(C)C(=O)NC(CCC(=O)O)C(N)=O)C1O` (centres unmarked) [CGP 18177, NAc-Mur (6-0-stearoyl)-LAla-D.isoGln], for which the “Mean Antibody Level-^125I-HCG” value in the experiment with HCG [1] (as E193, 4 weeks) came out at 215.1 M/L × 10^10; with HCG [1] (as E193, 5 weeks), 204.6 M/L × 10^10; with HCG [1] (as E193, 6 weeks) it was 218.2 M/L × 10^10; in the experiment with HCG [1] (as E193, 7 weeks) it was 441.9 M/L × 10^10; in the experiment on HCG [1] (as E193, 8 weeks), 544.9 M/L × 10^10; in the experiment on HCG [1] (as E193, 9 weeks), 456.2 M/L × 10^10. Also, the “Mean Antibody Level-^125I-HCG” value was 631.0 M/L × 10^10 with HCG [1] (as E193, 10 weeks); 584.0 M/L × 10^10 with HCG [1] (as E193, 11 weeks); 270.0 M/L × 10^10 with HCG [1] (as E193, 12 weeks); 19.9 M/L × 10^10 with HCG [1] (in vivo).

Take `CCCCCCCCCCCCCCCCCC(=O)OCC1OC(O)C(NC(C)=O)C(OCC(=O)NC(C)C(=O)NC(CCC(=O)O)C(N)=O)C1O` (centres unmarked) [CGP 18741, NAc-ner-Mur (6-0-stearoyl)-L.Ala-D.isoGln]: the “Mean Antibody Level-^125I-HCG” value is reported as 9.8 M/L × 10^10 in the experiment on HCG [1] (as E193, 4 weeks); 6.2 M/L × 10^10 in the experiment with HCG [1] (as E193, 5 weeks); 8.9 M/L × 10^10 with HCG [1] (as E193, 6 weeks); 81.1 M/L × 10^10 with HCG [1] (as E193, 7 weeks); 75.4 M/L × 10^10 in the experiment with HCG [1] (as E193, 8 weeks); 74.9 M/L × 10^10 with HCG [1] (as E193, 9 weeks). For the same compound, the “Mean Antibody Level-^125I-HCG” value in the experiment with HCG [1] (as E193, 10 weeks) came out at 121.8 M/L × 10^10; in the experiment with HCG [1] (as E193, 11 weeks), 156.8 M/L × 10^10; with HCG [1] (as E193, 12 weeks) it was 97.6 M/L × 10^10; in the experiment with HCG [1] (in vivo), 5.9 M/L × 10^10.

Take “Diazo-β-HCG-(111-145): peptide of Structure (II) modified by diazotization, booster after presensitization with diazotized beta subunit of HCG (DDPRFQDSSSSKAPPPSLPSPSRLPGPSDTPILPQ; diazo conjugate; UniProt P0DN86 131-165, looked up, fragment)”: the “Pre-Mate Titer” value with baboons (before Mating No. 2) came out at 4.10; in the experiment with baboons (before Mating No. 3), 4.00; in the experiment with baboons (before Mating No. 4), 3.89; with baboons (before Mating No. 5), 3.76; with baboons (before Mating No. 6) it was 5.00; with baboons (before Mating No. 7), 4.75. In addition, the “Pre-Mate Titer” value in the experiment with baboons (before Mating No. 8) came out at 4.20; with baboons (before Mating No. 9) it was 4.25. Moreover, the “antibody cross reactivity with LH” value in the experiment on baboons (in vivo) is reported as “antibody cross reactivity with LH was observed”.

In the case of “N-Palmitoyl-S-[2(R,S)-3-dipalmitoyloxy-propyl]-L-Cys-L-Ser-L-Ser-L-Asn-L-Ala-L-Glu [CGP 16940]”, the “HCG antibody levels compared with the CFA immunized rabbits” value with HCG [1] (in vivo) is given as “significantly lower”. For the same compound, the “Antibody level to Structure (XII)” value in experiment [2] was 110.0 ng/mL; in experiment [2] (C3H/He mice, same conjugate) it was 19.2 ng/mL; in experiment [2] (DBA/1 mice, same conjugate) it was 173.0 ng/mL; in experiment [2] (SJL mice, same conjugate), 369.0 ng/mL. Besides, the “Antibody level to CG” value in the experiment on HCG [3] is 1.0 ng/mL; in the experiment on HCG [3] (C3H/He mice, same conjugate), below 1.0 ng/mL; with HCG [3] (DBA mice, same conjugate), below 1.0 ng/mL; with HCG [3] (SJL mice, same conjugate), 8.6 ng/mL.

“NAc-Mur-L.Ala-D.isoGln-L.Ala-Cephalin [CGP 19835]”: the “Mean Antibody Level-^125I-HCG” value in the experiment with HCG [1] (as E193, 4 weeks) is listed as 286.7 M/L × 10^10; in the experiment with HCG [1] (as E193, 5 weeks), 140.3 M/L × 10^10; in the experiment with HCG [1] (as E193, 6 weeks), 172.0 M/L × 10^10; in the experiment on HCG [1] (as E193, 7 weeks), 123.4 M/L × 10^10; in the experiment with HCG [1] (as E193, 8 weeks), 138.9 M/L × 10^10; in the experiment with HCG [1] (as E193, 9 weeks) it was 105.2 M/L × 10^10. Also, the “Mean Antibody Level-^125I-HCG” value was found to be 151.3 M/L × 10^10 in the experiment on HCG [1] (as E193, 10 weeks); 169.3 M/L × 10^10 with HCG [1] (as E193, 11 weeks); 107.8 M/L × 10^10 with HCG [1] (as E193, 12 weeks); 19.3 M/L × 10^10 with HCG [1] (in vivo).

Consider NGlycol-Mur-L. a -Abu-D.isoGln [DT-1], for which the “Mean Antibody Level-^125I-HCG” value in the experiment on HCG [1] (as E193, 4 weeks) turned out to be 145.1 M/L × 10^10; in the experiment with HCG [1] (as E193, 5 weeks) it was 184.1 M/L × 10^10; with HCG [1] (as E193, 6 weeks) it was 268.6 M/L × 10^10; with HCG [1] (as E193, 7 weeks) it was 371.5 M/L × 10^10; with HCG [1] (as E193, 8 weeks) it was 366.2 M/L × 10^10; in the experiment on HCG [1] (as E193, 9 weeks), 654.8 M/L × 10^10. Also, the “Mean Antibody Level-^125I-HCG” value with HCG [1] (as E193, 10 weeks) was 729.4 M/L × 10^10; in the experiment on HCG [1] (as E193, 11 weeks), 627.5 M/L × 10^10; with HCG [1] (as E193, 12 weeks) it was 559.0 M/L × 10^10; in the experiment with HCG [1] (in vivo) it was 31.1 M/L × 10^10. Besides, the “HCG antibody levels compared with rabbits receiving adjuvants CGP 16940 and 12908” value in the experiment on HCG [1] (in vivo) was “significantly greater”.

Regarding “Structure (XII): residues 109-145 of beta-HCG, SEQ ID NO: 13; unconjugated in Table 11 (carrier None) (TCDDPRFQDSSSSKAPPPSLPSPSRLPGPSDTPILPQ; listed as Homo sapiens)”, the “Antibody Level to Peptide” value in experiment [2] (peptide of Structure (XII), 21 days after primary immunization) was 1.3 ng/mL; in experiment [2] (35 days), 0.8 ng/mL. Further, the “Antibody Level to HCG” value in the experiment on HCG [3] (21 days) and with HCG [3] (35 days) was 0.1 ng/mL each time.

Turning to “Tetanus Toxoid: carrier protein given alone to the control group”, the “Fertility Rate” value with female baboons (Mating Cycle 1) is given as 66.7%; with female baboons (Mating Cycle 2), 80.0%; with female baboons (Mating Cycle 3) it was 100.0%. Further, the “Number Pregnant” value in the experiment with female baboons (Mating Cycle 1) amounted to 10; with female baboons (Mating Cycle 2) it was 4; in the experiment on female baboons (Mating Cycle 3) it was 1. In addition, in the experiment with female baboons (all matings of three mating cycles), the “Overall Fertility Rate” value is given as 71.4%. Also, in the experiment on female baboons (three mating cycles), the “Total Number Pregnant” value was 15.
